In US20260183297A1, “SELECTION OF PATIENTS FOR THE TREATMENT OF FADS1-MEDIATED DISEASES OR DISORDERS USING FADS-1 INHIBITORS” (AMGEN INC., priority 2022, published 2026):
“Also recorded” adds a separate entry of the source.

Tests used:
[1] = Plasma PUFA measurement (LC-MS/MS); format: in vivo, mouse; settings: for FADS1 activity 20:4n-6/20:3n-6 / FADS2 activity 18:3n-6/18:2n-6: DIO mice plasma ratio; for FADS1 activity 20:4n-6/20:3n-6 / FADS2 activity 18:3n-6/18:2n-6 / Adrenic acid 22:4 n-6 / Alpha-Linolenic acid 18:3 n-3 / Arachidonic acid 20:4 n-6 / Dihomo-gamma-Linolenic acid 20:3 n-6 / Docosahexaenoic acid 22:6 n-3 / Eicosapentaenoic acid 20:5 n-3 / Eicosatetraenoic acid 20:4 n-3 / Gamma-Linoleic acid 18:3 n-6 / Linoleic acid 18:2 n-6: mean ± SD; for Adrenic acid 22:4 n-6 / Alpha-Linolenic acid 18:3 n-3 / Arachidonic acid 20:4 n-6 / Dihomo-gamma-Linolenic acid 20:3 n-6 / Docosahexaenoic acid 22:6 n-3 / Eicosapentaenoic acid 20:5 n-3 / Eicosatetraenoic acid 20:4 n-3 / Gamma-Linoleic acid 18:3 n-6 / Linoleic acid 18:2 n-6: DIO mice plasma; for Adrenic acid AdA 22:4 n-6 / Arachidonic acid AA 20:4 n-6 / Decosahexaenoic acid DHA 22:6 n-3 / Dihomo-γ-Linolenic acid DGLA 20:3 n-6 / Eicosapentaenoic acid EPA 20:5 n-3 / Eicosatetraenoic acid ETA 20:4 n-3 / Linoleic acid LA 18:2 n-6 / α-Linolenic acid ALA 18:3 n-3 / γ-Linoleic acid GLA 18:3 n-6: plasma of Compound A-treated mice; for FADS1 activity AA/DGLA 20:4n-6/20:3n-6 / FADS2 activity GLA/LA 18:3n-6/18:2n-6: plasma ratio, Compound A-treated mice
Experimental: Ten microliter of plasma or PUFA standards diluted in surrogate matrix (60 g/l bovine serum albumin in Dulbecco's phosphate-buffered saline [DPBS]) were mixed with 10 μl of ALA-d14 as the internal stand in a 96-well plate. 100 μl of 2N NaOH was added to the mixture for subsequent saponification at 65° C. for 1 hour. The mixture was then acidified with 50 μl of formic acid followed by two consecutive 500 μl hexane extractions. The organic extracts from the two extractions were combined and the solvent was evaporated under nitrogen gas. […] The PUFA peak areas were quantified by using the Analyst software (SCIEX, Framingham, MA).

[2] = Chronic FADS1 inhibition study in DIO mice (body weight, food intake); format: in vivo, mouse; settings: for lower body weight relative to vehicle-treated mice: 54 days
Experimental: Body weight was measured daily and used for dosing calculations. A 4-hour fasted retro-orbital blood sample was collected at baseline and day 46 and used for insulin, cholesterol, and triglyceride analysis. A 3-day average food consumption was measured on days 39-41. All animals received 0.1 ml of 2 mM ^13C5-DGLA by IP injection 23.5 hours after the last PO gavage with the different treatment to allow for 30 minutes of exposure prior to necropsy to determine the residual in vivo FADS1 activity.

mouse FADS1 = molecular target: T1, mouse FADS1 (Mus musculus, UniProt Q920L1); assay: Mouse FADS1 cell-based assay; settings: in vitro; read-out: half-maximal inhibitory concentration (IC50) against mouse FADS1
T1 sequence (Q920L1 1-447): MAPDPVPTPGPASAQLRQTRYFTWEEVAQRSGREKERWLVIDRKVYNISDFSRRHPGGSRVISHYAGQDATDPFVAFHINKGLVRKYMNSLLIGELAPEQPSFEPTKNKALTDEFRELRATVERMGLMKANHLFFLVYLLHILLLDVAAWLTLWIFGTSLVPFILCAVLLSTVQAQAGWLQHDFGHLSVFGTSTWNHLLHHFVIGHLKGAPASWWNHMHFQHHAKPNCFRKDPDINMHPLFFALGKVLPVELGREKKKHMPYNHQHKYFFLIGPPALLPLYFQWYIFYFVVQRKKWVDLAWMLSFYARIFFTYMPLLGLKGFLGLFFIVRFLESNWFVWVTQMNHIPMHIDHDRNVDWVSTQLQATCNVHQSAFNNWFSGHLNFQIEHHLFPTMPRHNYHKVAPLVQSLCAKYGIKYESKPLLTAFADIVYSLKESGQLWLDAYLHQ
Experimental: HEK 293 cells in Dulbecco's Modified Eagle's medium (DMEM), 10% fetal bovine serum (FBS), 1× penicillin-streptomycin-glutamine (PSG) were mixed with FADS1 BacMam or FADS2 BacMam reagents at multiplicity of infection (MOI) ratio of 25 and plated in a in 96-well poly-D-lysine-coated plate. Plates were incubated in a 37° C., 5% CO2 for 24 hours. Cells were washed with DPBS and cells were incubated with […] of compound dilution in DPBS at 5% CO2, 37° C. for 20 minutes. Ten L of the substrate, ^13C5-DGLA (FADS1), or 13C-LA (FADS2) diluted in DPBS were added to the cells and incubated at 5% CO2, 37° C. for 30 minutes (FADS1) or 45 minutes (FADS2). Cells were then washed with DPBS and 50 μL of 2N NaOH were added to each well and incubated in a 65° C. oven for 1 hour for the saponification reaction. After cooling to room temperature, 22 μl of formic acid was added followed by the addition of 113 μl of acetonitrile with 1.5 μM ALA-d14 as the internal standard. Samples were then subjected to LC-MS/MS detection for the following analytes for the FADS1 reaction: ^13C5-DGLA and ^13C5-AA or the following analytes for the FADS2 reaction: ^13C18-LA, ^13C18-GLA, ^13C18-DGLA and ^13C18-AA. […]
The analyte peak areas were quantified by using the Analyst software (SCIEX, Framingham, MA). The percent of substrate to product conversion relative to untreated control were calculated (percent of control [POC]). […]

IC50 (mouse FADS1): 4 nM
Compound: COc1ccn2c(=O)c(-c3cnn(CC(F)(F)C(F)(F)F)c3)c(C(F)(F)F)nc2c1 [Compound A, 8-methoxy-3-(1-(2,2,3,3,3-pentafluoropropyl)-1H-pyrazol-4-yl)-2-(trifluoromethyl)-4H-pyrido[1,2-a]pyrimidin-4-one]
FADS1 activity 20:4n-6/20:3n-6 ([1]; 10 mg kg^−1, 46 or 54 days): 0.06 ± 0.01
FADS2 activity 18:3n-6/18:2n-6 ([1]; 10 mg kg^−1, 46 or 54 days): 0.018 ± 0.002
FADS1 activity 20:4n-6/20:3n-6 ([1]; 30 mg kg^−1, 46 or 54 days): 0.05 ± 0.01
FADS2 activity 18:3n-6/18:2n-6 ([1]; 30 mg kg^−1, 46 or 54 days): 0.014 ± 0.003
Adrenic acid 22:4 n-6 ([1]; 10 mg kg^−1, 46 or 54 days): 1.0 ± 0.1 µg/mL
Alpha-Linolenic acid 18:3 n-3 ([1]; 10 mg kg^−1, 46 or 54 days): 0.9 ± 0.3 µg/mL
Arachidonic acid 20:4 n-6 ([1]; 10 mg kg^−1, 46 or 54 days): 16.1 ± 3.2 µg/mL
Dihomo-gamma-Linolenic acid 20:3 n-6 ([1]; 10 mg kg^−1, 46 or 54 days): 281.3 ± 34.6 µg/mL
Docosahexaenoic acid 22:6 n-3 ([1]; 10 mg kg^−1, 46 or 54 days): 93.5 ± 11.8 µg/mL
Eicosapentaenoic acid 20:5 n-3 ([1]; 10 mg kg^−1, 46 or 54 days): 0.3 ± 0.1 µg/mL
Eicosatetraenoic acid 20:4 n-3 ([1]; 10 mg kg^−1, 46 or 54 days): 2.5 ± 0.5 µg/mL
Gamma-Linoleic acid 18:3 n-6 ([1]; 10 mg kg^−1, 46 or 54 days): 3.4 ± 0.4 µg/mL
Linoleic acid 18:2 n-6 ([1]; 10 mg kg^−1, 46 or 54 days): 198.5 ± 10.5 µg/mL
Adrenic acid 22:4 n-6 ([1]; 30 mg kg^−1, 46 or 54 days): 0.8 ± 0.1 µg/mL
Alpha-Linolenic acid 18:3 n-3 ([1]; 30 mg kg^−1, 46 or 54 days): 0.7 ± 0.2 µg/mL
Arachidonic acid 20:4 n-6 ([1]; 30 mg kg^−1, 46 or 54 days): 12.5 ± 3.0 µg/mL
Dihomo-gamma-Linolenic acid 20:3 n-6 ([1]; 30 mg kg^−1, 46 or 54 days): 242.3 ± 23.4 µg/mL
Docosahexaenoic acid 22:6 n-3 ([1]; 30 mg kg^−1, 46 or 54 days): 78.2 ± 11.6 µg/mL
Eicosapentaenoic acid 20:5 n-3 ([1]; 30 mg kg^−1, 46 or 54 days): 0.3 ± 0.1 µg/mL
Eicosatetraenoic acid 20:4 n-3 ([1]; 30 mg kg^−1, 46 or 54 days): 1.9 ± 0.4 µg/mL
Gamma-Linoleic acid 18:3 n-6 ([1]; 30 mg kg^−1, 46 or 54 days): 2.8 ± 0.5 µg/mL
Linoleic acid 18:2 n-6 ([1]; 30 mg kg^−1, 46 or 54 days): 196.5 ± 24.6 µg/mL
Adrenic acid AdA 22:4 n-6 ([1]; 10 mg/kg): 1.0 ± 0.1 µg/mL
Arachidonic acid AA 20:4 n-6 ([1]; 10 mg/kg): 16.1 ± 3.2 µg/mL
Decosahexaenoic acid DHA 22:6 n-3 ([1]; 10 mg/kg): 93.5 ± 11.8 µg/mL
Dihomo-γ-Linolenic acid DGLA 20:3 n-6 ([1]; 10 mg/kg): 281.3 ± 34.6 µg/mL
Eicosapentaenoic acid EPA 20:5 n-3 ([1]; 10 mg/kg): 0.3 ± 0.1 µg/mL
Eicosatetraenoic acid ETA 20:4 n-3 ([1]; 10 mg/kg): 2.5 ± 0.5 µg/mL
Linoleic acid LA 18:2 n-6 ([1]; 10 mg/kg): 198.5 ± 10.5 µg/mL
α-Linolenic acid ALA 18:3 n-3 ([1]; 10 mg/kg): 0.9 ± 0.3 µg/mL
γ-Linoleic acid GLA 18:3 n-6 ([1]; 10 mg/kg): 3.4 ± 0.4 µg/mL
Adrenic acid AdA 22:4 n-6 ([1]; 30 mg/kg): 0.8 ± 0.1 µg/mL
Arachidonic acid AA 20:4 n-6 ([1]; 30 mg/kg): 12.5 ± 3.0 µg/mL
Decosahexaenoic acid DHA 22:6 n-3 ([1]; 30 mg/kg): 78.2 ± 11.6 µg/mL
Dihomo-γ-Linolenic acid DGLA 20:3 n-6 ([1]; 30 mg/kg): 242.3 ± 23.4 µg/mL
Eicosapentaenoic acid EPA 20:5 n-3 ([1]; 30 mg/kg): 0.3 ± 0.1 µg/mL
Eicosatetraenoic acid ETA 20:4 n-3 ([1]; 30 mg/kg): 1.9 ± 0.4 µg/mL
Linoleic acid LA 18:2 n-6 ([1]; 30 mg/kg): 196.5 ± 24.6 µg/mL
α-Linolenic acid ALA 18:3 n-3 ([1]; 30 mg/kg): 0.7 ± 0.2 µg/mL
γ-Linoleic acid GLA 18:3 n-6 ([1]; 30 mg/kg): 2.8 ± 0.5 µg/mL
FADS1 activity AA/DGLA 20:4n-6/20:3n-6 ([1]; 10 mg/kg): 0.06 ± 0.01
FADS2 activity GLA/LA 18:3n-6/18:2n-6 ([1]; 10 mg/kg): 0.018 ± 0.002
FADS1 activity AA/DGLA 20:4n-6/20:3n-6 ([1]; 30 mg/kg): 0.05 ± 0.01
FADS2 activity GLA/LA 18:3n-6/18:2n-6 ([1]; 30 mg/kg): 0.014 ± 0.003
decrease of AA/DHA ratio ([1]; plasma, Compound A-treated mice (Table 6.1)): five-fold
lower body weight relative to vehicle-treated mice ([2]; 10 mg/kg daily oral): 17.9%
lower body weight relative to vehicle-treated mice ([2]; 30 mg/kg daily oral): 21.1%
food intake ([2]; 10 and 30 mg/kg daily oral): without affecting food intake; also recorded: No significant differences
